Assay results: PubChem BioAssay AID493002 (Sanford-Burnham Center for Chemical Genomics, 2010)
pIC50: −log10 of the molar value.

tested on: S. cerevisiae tim23-1 mutant growth, luminescence; experiment: tim23-1 mutant yeast growth inhibitors, dose response, luminescence, uHTS hits (AID 493002);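 note: yeast grown roughly 22 hours at 25 °C before the luminescence read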

SMILES | pIC50
Cn1c(=O)c(C(=O)Nc2ccccn2)c(O)c2ccccc21 | 4.82
CCCCSC1=C(C#N)C(c2ccccc2C)CC(=O)N1 (stereo not drawn) | 4.86
Cc1ccn2cc(-c3ccc(NC(=O)c4ccco4)cc3)nc2c1 | 4.75
CCOC(=O)c1c(C)oc2c(F)c(F)c(F)c(F)c2c1=O | 4.88
CN1C(=O)C(=Cc2ccccc2OS(=O)(=O)c2ccccc2)C(=O)N(C)C1=O | 5.18
O=C(NCc1ccc2c(c1)OCO2)c1c(O)nc2sccn2c1=O | 5.21
COc1ccc(C(=O)COC(=O)c2cncc(Br)c2)cc1 | 5.00
Nc1ccc(C(=O)Nc2nc3ccccc3s2)cc1 | 4.98
COC(=O)c1ccc(NC(=O)c2nc(S(=O)(=O)Cc3cccc(C)c3)ncc2Cl)cc1 | 5.96
CCN(CC)S(=O)(=O)c1ccc(C(=O)OCn2nnc3ccccc3c2=O)cc1 | 5.03
O=C(/C=C/c1ccccc1)Nc1ccc2c(c1)OCCO2 | 4.93
O=C(NCCCc1ccccc1)c1c(O)nc2sccn2c1=O | 5.33
N#C/C(=C/c1ccc(N2CCOCC2)o1)c1nc2ccccc2[nH]1 | 5.14
C=C1CCc2c([nH]c3ccc(OCC(C)C)cc23)C1=O | 5.48
Cc1ccc(/C=N/NC(=O)c2csc3c2CCCC3)cc1 | 4.82
Cc1[nH][nH]c(=O)c1C(c1ccc(-c2ccc(Cl)cc2)o1)c1c(C)[nH][nH]c1=O | 4.89
c1ccc(-c2cc3cc4c(cc3cn2)OCO4)cc1 | 4.77
COc1cccc2c1C(=O)C=C(C)C2=O | 5.27
COc1ccc(N2CCN(c3nc4cc(C)ccc4cc3C=O)CC2)cc1 | 4.60
N=c1c2c(-c3ccccc3)c(-c3ccccc3)n(Cc3ccco3)c2ncn1Cc1ccccc1 | 4.96
Nc1cccc(-c2nc3ccc(C(=O)c4ccccc4)cc3[nH]2)c1 | 4.97
COc1cc(C(=O)N/N=C/c2coc3ccc(Cl)cc3c2=O)ccc1O | 5.36
O=C(Nc1cc(-c2ccccc2)[nH]n1)c1ccccc1F | 4.69
Oc1ccc(/C=N/Nc2cccc(Cl)n2)c(O)c1 | 4.97
c1ccc(-c2ncc(-c3ccn[nH]3)s2)cc1 | 5.22

SMILES | pIC50
CC(C)CN1C(=O)c2ccc(NC(=O)c3ccco3)cc2C1=O | 4.69
COc1ccc(CCN(/C=C2\Sc3ccccc3C2=O)C(C)=O)cc1OC | 4.85
Cc1ccc2nc(NC(=O)COC(=O)c3cccnc3)sc2c1 | 5.02
Nc1nc(-c2ccc(-c3ccccc3)cc2)cs1 | 4.83
CCOC(=O)C1=C(CSc2nc(CC)c(C)cc2C#N)OC(N)=C(C#N)C1c1ccc(OC)cc1 (stereo not drawn) | 4.75
O=C(Nc1cccc(NC(=O)c2cccs2)c1)c1ccc(Br)o1 | 5.03
N#Cc1c(-c2ccccc2)cc(-c2ccc(O)cc2)nc1N | 5.25
CCOc1cc2c3c(c1)C(C)CC(C)(C)N3C(=O)C2=O (stereo not drawn) | 4.85
O=C(N/N=C/c1coc2ccc(Cl)cc2c1=O)c1cc(O)cc(O)c1 | 5.23
O=C(O)c1ccc(N/N=C/c2ccc(-c3ccc(Br)cc3)o2)cc1 | 4.79
O=C(Nc1ccc(Br)c(Cl)c1)c1ccco1 | 4.74
CCC(=O)OCC(=O)[C@@]1(OC(=O)CC)[C@@H](C)C[C@H]2[C@@H]3CCC4=CC(=O)C=C[C@]4(C)[C@@]3(Cl)[C@@H](O)C[C@@]21C | 4.83
N#C/C(N)=C(/C#N)N=Cc1cccc(Cl)c1 | 5.05
CCOC(=O)c1c(NC(=O)CSc2nnnn2-c2ccc(OC)cc2)sc(C)c1C | 5.39
COc1cc2ccccc2cc1C(=O)Nc1ccc(C)cc1 | 4.90
CN1C(=O)/C(=C\c2ccco2)N=C1c1ccc(Cl)cc1Cl | 4.89
Oc1ccc(Br)cc1/C=N/Nc1ccccn1 | 5.16
O=c1c(O)c(-c2ccccc2)oc2cc(O)cc(O)c12 | 5.07
O=c1/c(=C/c2cccc3ccccc23)sc2ncnn12 | 5.15
CC1CCN(C(=O)c2ccc3c(c2)NC(=O)/C(=C/c2ccccc2)S3)CC1 | 4.87
Cc1cccc(C(=O)Oc2cccc3c(O)cccc23)c1 | 5.08
Cc1nc2ccc(NC(=O)c3cccs3)cc2c(=O)n1Cc1ccc(Cl)cc1 | 4.92
Cc1csc2nc(O)c(C(=O)NCCCc3ccccc3)c(=O)n12 | 5.10
CSc1nnc(C(C)(C)C)c(=O)n1/N=C/c1ccccc1 | 4.87
O=C(N/N=C/c1cc(Br)cc(Br)c1O)c1cccc(N2CCCC2=O)c1 | 5.20

SMILES | pIC50
CC1c2[nH]c3ccccc3c2CCN1C(=O)Nc1ccccc1 (stereo not drawn) | 4.92
CCn1ncc([N+](=O)[O-])c1C(=O)Nc1nc2cccc(C)c2s1 | 4.75
COc1cc(OC)cc(C(=O)Nc2ccc(Nc3ccccc3)cc2)c1 | 5.00
CCCCS/C(N)=N/N=C/c1ccccc1O | 4.74
O=Cc1sc(Nc2ccccc2)nc1Cl | 4.93
Cc1ccc(Nc2cc(C)c3ccc(O)cc3n2)cc1C | 4.95
O=C(Nc1ccc(-c2cn3ccccc3n2)cc1)c1ccco1 | 5.22
COCCn1c(C)cc(C(=O)COC(=O)c2ccc([N+](=O)[O-])o2)c1C | 5.16
O=C(CC(=O)c1cc(Cl)ccc1O)c1ccccc1 | 5.15
COc1ccc(NC(=O)Nc2cccc3cccnc23)cc1 | 4.40
CCOC(=O)c1cnc(-n2nc(C)cc2C)nc1NCCc1ccccc1 | 5.01
Cc1cc(C)nc(SCC(=O)c2cc3ccccc3oc2=O)n1 | 5.00
COn1c(=O)c(-c2cccs2)[n+]([O-])c2ccccc21 | 5.40
c1ccc2[nH]c(-c3ccc4c(c3)OCO4)nc2c1 | 5.06
CCOc1cc(/C=C2\SC(N3CCCC(C)C3)=NC2=O)ccc1O (stereo not drawn) | 4.54
O=C(/C=C/c1ccccc1)NCCc1c[nH]c2ccccc12 | 4.82
Fc1ccccc1-c1cc2cc3c(cc2cn1)OCO3 | 4.79
O=C(c1cc(-c2cccc(O)c2)on1)N1CCc2ccccc2C1 | 4.80
CCCC(=O)NC(c1ccc(C(C)C)cc1)c1ccc2cccnc2c1O (stereo not drawn) | 5.14
Cn1nc(C(F)(F)F)c2cc(NC(=O)OCC(C)(C)C)sc21 | 4.55
O=C(Nc1ccc(-c2cn3ccccc3n2)cc1)c1cccs1 | 5.53
C[C@@]12C(=O)Nc3ccc(Br)cc3C(=O)N1[C@H]1c3ccccc3OC[C@@H]1[C@@H]2c1ccccc1 | 5.58
O=C(Nc1ccc(F)c(Cl)c1)C1CC2CCC1C2 (stereo not drawn) | 4.67
CC(C)CCN1C(=O)c2cccc3c(N)ccc(c23)C1=O | 5.04
COC(=O)c1ccc(NC(=O)CSc2nc(=O)n3cccc(C)c3n2)cc1 | 4.64

SMILES | pIC50
CCN1C(=O)/C(=C2\SC(N3CCCCC3)=NC2=O)c2ccccc21 | 4.75
NC(=S)N/N=C/c1coc2ccc(Br)cc2c1=O | 5.36
COc1cc(C2CC(c3cccs3)=NN2C(=O)CCl)ccc1OC(F)F (stereo not drawn) | 4.66
CN(C)/C=C1/C=C(c2ccccc2)OC1=O | 4.92
COc1cc2c3c(c1)C(C)=CC(C)(C)N3C(=O)C2=O | 5.06
O=C1c2cccc3c(Cl)ccc(c23)C(=O)N1O | 5.02
C/C(=N\Nc1nc2ccccc2s1)c1cccs1 | 5.03
COC(=O)c1ccc(C(=O)OC)c(NC(=O)CSc2cccc[n+]2[O-])c1 | 5.36
O=C1/C(=C/c2cccs2)COc2ccccc21 | 5.08
Brc1cccc(-c2n[nH]c(-c3ccccc3)n2)c1 | 4.94
Cc1nc(Nc2ccccc2)sc1C(=O)Nc1ccccc1 | 4.84
Cc1ccc(OCc2cc(C(=O)NCc3cnn(-c4cccc(F)c4)c3)no2)cn1 | 4.83
Cc1ccc(C(=O)NC2=NCCS2)cc1Cl | 4.78
O=C(Nc1ccc(F)c(Cl)c1)c1ccccc1 | 4.94
Cc1ccc(NC(=S)NC(=O)C2CC2)cc1Cl | 5.16
COc1ccc(C(=O)N/N=C\c2coc3ccccc3c2=O)cc1 | 4.86
CCOC(=O)c1c(N)sc(C(=O)Nc2ccccc2)c1C | 5.39
COc1ccc(-c2cc(-c3ccccc3O)[nH]n2)cc1 | 5.03
Cc1ccc(-c2nc3n(n2)Cc2ccccc2-3)cc1 | 4.81
COc1ccc(OC)c(-c2csc(NC(=O)Cc3ccc(F)cc3)n2)c1 | 5.02
COc1ccc2c(=O)c3c(=O)n(Cc4ccco4)c(-c4ccccc4)nc3oc2c1 | 4.76
O=C(Nc1ccc(Oc2cccc3ccccc23)cc1)c1ccco1 | 5.08
N=C1/C(=C\c2coc3ccccc3c2=O)C(=O)N=C2SC=CN12 | 5.05
Cc1ccc2occ(/C=N/NC(=O)c3ccncc3)c(=O)c2c1 | 4.67
Cc1nn(CC(=O)Nc2nc3ccccc3s2)c(C)c1[N+](=O)[O-] | 5.08

SMILES | pIC50
Cc1ccc(-c2nc3ccccc3[nH]2)s1 | 5.21
Cc1ccc(CNc2oc(-c3cccs3)nc2C#N)cc1 | 4.59
NC(N)=N/N=C/c1ccc(OCc2ccccc2Cl)cc1 | 4.74
Cn1c(C(=O)Nc2ccc3c(c2)OCCO3)cc2sccc21 | 4.92
NNC(=O)c1nc(-c2ccccc2)cc(-c2ccccc2)n1 | 5.18
Cc1ccccc1[C@@]1(C)ON(c2ccccc2C(F)(F)F)C1=O | 5.15
COc1ccc(C(=O)CC(=O)c2ccccc2O)cc1 | 4.82
Cc1ccc2nc(-c3ccc(N)cc3)sc2c1 | 5.00
COc1ccc(S(=O)(=O)CC(=O)c2cc3cccc(C)c3oc2=O)cc1 | 4.89
c1ccc(-c2nc(NCc3cccs3)c3ccccc3n2)cc1 | 4.90
COc1cc2c(cc1OC)/C(=C/c1ccc(Cl)cc1)C(=O)OC2 | 5.05
COc1ccc(C(C[N+](=O)[O-])c2c(C)[nH]n(-c3ccccc3)c2=O)cc1 (stereo not drawn) | 5.12
Cc1ccc(/C=N/NC(=O)c2ccc3c(c2)OCCO3)s1 | 4.46
Oc1ccc2ccccc2c1/C=N/c1nccs1 | 4.98
CCC(C)NC(=O)c1c(N)n(CCCOC)c2nc3ccccc3nc12 (stereo not drawn) | 4.85
Oc1ccc(-c2nccc(-c3cccs3)n2)cc1 | 4.69
CN1CCc2nc3sc(C(=O)C45CC6CC(CC(C6)C4)C5)c(N)c3cc2C1 | 5.61
O=C(c1cc(-c2ccc(O)cc2)on1)N1CCc2ccccc2C1 | 5.05
O=C(Nc1ccc(OC(F)(F)F)cc1)N1CCN(c2ccnc3cc(Cl)ccc23)CC1 | 4.98
O=C(Nc1ccccc1N(C(=O)c1ccco1)S(=O)(=O)c1cccs1)c1ccco1 | 5.01
CC(C)(C)c1ccc(Oc2ccc(N)cc2)cc1 | 5.33
O=C(/C=C/c1ccccc1)Oc1cccc2cccnc12 | 4.67
O=C(NC(=S)NC(=O)c1ccccc1F)c1ccccc1F | 5.21
